The values below come from US20110034504A1, “AGENT FOR PREVENTING AND/OR TREATING VASCULAR DISEASES” (Astellas Pharma Inc., priority 2008, published 2011).

The subject of data set [1] is iron chloride-induced thrombus (abdominal aorta). Description: ferric chloride-induced thrombosis model in guinea pigs. The format is in vivo, guinea pig. The settings on record: for total protein content of thrombi, concomitant administration compared with single administration groups: oral; for total protein content of thrombi, comparison with control (vehicle administration group): single drug, Student's t-test. The procedure: Verification of anti-thrombotic action was carried out using a ferric chloride-induced thrombosis model in guinea pigs, by partially modifying the experiment described in “Thrombosis Research” (1990, vol. 60, p. 269-280). Using 0.5% methyl cellulose solution as the vehicle, clopidogrel solution, aspirin suspension and Compound A suspension were prepared. […] Thrombus was induced by the following procedure. Each guinea pig was laparotomized while under pentobarbital anesthesia, and abdominal aorta was carefully detached from the surrounding tissues. […] The filter paper was removed 10 minutes thereafter, followed by 45 minutes of standing under subdued light. Both ends of the injured part of the detached blood vessel were closed with clips, and inside thereof was cut out using scissors to collect the blood vessel. By cutting open the thus collected blood vessel vertically, the thrombi formed in the blood vessel were taken out using a pair of tweezers and dissolved in 0.5 mol/1 of NaOH. Protein concentration was determined using DC protein assay kit (mfd. by BIO-RAD Laboratories) and in accordance with the protocols. Using total protein content of the formed thrombi as the index of anti-thrombotic effect, Statistical analysis between respective groups was performed by using Student's t-test.

The test system of a further data set is gastric mucosa. The data set is described as follows: influence of drugs upon gastric mucosa in normal guinea pigs. The format is in vivo, guinea pig. The conditions noted are these: for gastric mucosal lesion (length): 3 hours after administration. The procedure:
Examination of the influence of drugs exerting upon gastric mucosa was carried out using normal guinea pigs. Using 0.5% methyl cellulose solution as the vehicle, clopidogrel solution, aspirin suspension and Compound A suspension were prepared. […] Also, in the evaluation at the time of concomitant administration of clopidogrel with aspirin or Compound A, in addition to 3 mg/kg of clopidogrel, 300 mg/kg of aspirin was simultaneously administered in the aspirin concomitant use group, and 100 mg/kg of Compound A in the Compound A concomitant use group. After 3 hours of the administration, each guinea pig was sacrificed by deep anesthesia with carbon dioxide, and the stomach was quickly removed. The gullet part of the extracted stomach was ligated, 15 ml of 4% neutral buffered formalin solution was injected from the pylorus part, and then light fixation was carried out by immersing in the same solution for about 1 hour after ligating the pylorus part. Thereafter, the stomach was cut open along the greater curvature of stomach, and the length (mm) of gastric mucosal lesion was measured using a stereoscopic microscope. Statistical analysis between respective groups was performed by using Wilcoxon rank sum test.

Another data set has as its target T1, COX-1 (Cavia porcellus, UniProt H0V9X9).
T1 construct: from tissue; host or cells: whole blood from the abdominal aorta of male Hartley guinea pigs
T1 sequence (H0V9X9 25-553): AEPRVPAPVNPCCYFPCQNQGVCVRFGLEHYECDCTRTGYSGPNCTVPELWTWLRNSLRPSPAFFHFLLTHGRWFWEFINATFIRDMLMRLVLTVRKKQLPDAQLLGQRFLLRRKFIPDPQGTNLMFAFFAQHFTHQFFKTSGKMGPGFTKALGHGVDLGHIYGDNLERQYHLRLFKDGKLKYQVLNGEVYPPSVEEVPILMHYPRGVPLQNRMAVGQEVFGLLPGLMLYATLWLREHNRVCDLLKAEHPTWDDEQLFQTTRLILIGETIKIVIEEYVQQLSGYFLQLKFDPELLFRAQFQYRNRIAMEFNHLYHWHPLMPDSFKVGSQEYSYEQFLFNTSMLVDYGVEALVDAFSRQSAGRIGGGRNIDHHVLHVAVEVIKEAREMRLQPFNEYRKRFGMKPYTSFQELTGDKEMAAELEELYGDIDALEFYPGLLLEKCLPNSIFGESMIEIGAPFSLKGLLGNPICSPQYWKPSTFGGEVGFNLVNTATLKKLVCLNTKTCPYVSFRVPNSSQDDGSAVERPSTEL
Description: coagulation-induced Thromboxane B2 (TXB2) production inhibition using guinea pig whole blood after oral administration. The format is in vivo. The settings on record: concomitant use with 1 mg/kg of clopidogrel, read-out: inhibitory rate of coagulation-induced TXB2 production relative to the vehicle group. The procedure:
Examination on the selectivity of inhibitory effect on Cyclooxygenase (COX)-½ was carried out based on, as indexes, the coagulation-induced Thromboxane B2 (TXB2) production inhibition (COX-1 inhibition) and the LPS-induced Prostaglandin E2 (PGE2) production inhibition using guinea pig whole blood. As the vehicle, 0.5% methyl cellulose solution was used. By dissolving clopidogrel and suspending aspirin and Compound A therein, clopidogrel was orally administered 2 hours before the blood collection, and aspirin and Compound A 1 hour before thereof, to male Hartley guinea pigs which had been subjected to fasting (drug administered groups). On the other hand, as the vehicle administration group, clopidogrel was orally administered 2 hours before the blood collection, and the vehicle 1 hour before thereof. […] TXB2 concentration in the serum was measured using a TXB2 EIA Kit (mfd. by Cayman Chemicals). […] PGE2 concentration in the buffer was measured using a PGE2 EIA Kit (mfd. by Cayman Chemicals). Inhibitory rate of each of the TXB2 concentration and PGE2 concentration relative to the vehicle group was calculated using a calculation formula [100-(drug administration group concentration/solvent administration concentration)×100 (%)], and significant difference from the vehicle group was tested using Student's t-test.

The target in a further data set is T2, COX-2 (Cavia porcellus, UniProt P70682).
T2 construct: The sodium citrate-added whole blood was mixed with LPS to a final concentration of 100 μg/ml, incubated at 37° C. for 24 hours; from tissue; host or cells: citrated whole blood of male Hartley guinea pigs, stimulated with LPS
T2 sequence (P70682 18-604): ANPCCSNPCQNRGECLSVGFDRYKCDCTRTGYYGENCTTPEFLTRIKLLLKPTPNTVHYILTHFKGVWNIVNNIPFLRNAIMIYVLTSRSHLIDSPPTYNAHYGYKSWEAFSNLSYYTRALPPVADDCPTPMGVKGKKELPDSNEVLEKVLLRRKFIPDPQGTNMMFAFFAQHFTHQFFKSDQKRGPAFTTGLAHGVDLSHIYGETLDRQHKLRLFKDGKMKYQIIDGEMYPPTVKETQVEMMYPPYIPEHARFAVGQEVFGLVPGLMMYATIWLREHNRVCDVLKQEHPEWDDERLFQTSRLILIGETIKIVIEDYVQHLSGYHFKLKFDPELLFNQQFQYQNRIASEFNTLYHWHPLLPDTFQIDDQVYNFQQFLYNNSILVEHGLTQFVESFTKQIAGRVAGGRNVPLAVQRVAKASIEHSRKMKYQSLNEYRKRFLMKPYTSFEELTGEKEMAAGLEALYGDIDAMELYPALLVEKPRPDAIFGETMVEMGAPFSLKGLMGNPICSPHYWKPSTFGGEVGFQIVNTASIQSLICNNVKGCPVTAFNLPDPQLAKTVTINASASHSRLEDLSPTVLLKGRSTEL
Description: LPS-induced Prostaglandin E2 (PGE2) production inhibition using guinea pig whole blood after oral administration. The format is in vivo. The settings on record: read-out: inhibitory rate of LPS-induced PGE2 production relative to the vehicle group.

The conditions of data set [2]: thromboembolism patients, CAPRIE trial; cited from earlier work.
The conditions of data set [3]: cited from earlier work.
For data set [4] the following is noted: clopidogrel combined with aspirin, cited from earlier work.
For data set [5] the following is noted: combination use of aspirin and clopidogrel, cited from earlier work.

Where two headings read alike, the source gives them in different places.

Description for COX-2: Examination on the selectivity of inhibitory effect on Cyclooxygenase (COX)-½ was carried out based on, as indexes, the coagulation-induced Thromboxane B2 (TXB2) production inhibition (COX-1 inhibition) and the LPS-induced Prostaglandin E2 (PGE2) production inhibition using guinea pig whole blood. As the vehicle, 0.5% methyl cellulose solution was used. […] On the other hand, as the vehicle administration group, clopidogrel was orally administered 2 hours before the blood collection, and the vehicle 1 hour before thereof. Each guinea pig was laparotomized while under ether anesthesia, 4 ml of blood was collected from the abdominal aorta, and 1 ml thereof was put into an anticoagulant-un-added tube and allowed to stand still and then 3 ml thereof was put into a tube charged with 300 μl of sodium citrate, followed by tipping mixing. […] PGE2 concentration in the buffer was measured using a PGE2 EIA Kit (mfd. by Cayman Chemicals). Inhibitory rate of each of the TXB2 concentration and PGE2 concentration relative to the vehicle group was calculated using a calculation formula [100-(drug administration group concentration/solvent administration concentration)×100 (%)], and significant difference from the vehicle group was tested using Student's t-test.

`COc1ccc(-c2nc(OC)nn2-c2ccc(OC)cc2)cc1` [Compound A, 3-methoxy-1,5-bis(4-methoxyphenyl)-1H-1,2,4-triazole]: in data set [1] (3 mg/kg Compound A + 1 mg/kg clopidogrel vs 300 mg/kg aspirin + 1 mg/kg clopidogrel), the “total protein content of thrombi, compared with concomitant administration group of clopidogrel and aspirin” value was “statistically significant difference from a concomitant administration group of clopidogrel and aspirin”. Moreover, in data set [1] (3 mg/kg Compound A concomitantly with 1 mg/kg clopidogrel), the “total protein content of thrombi, concomitant administration compared with single administration groups” value was “statistically significant difference from the clopidogrel single administration group (CLO 1) and Compound A single administration group (Comp A 3)”. In addition, the “total protein content of thrombi, comparison with control (vehicle administration group)” value in data set [1] (Compound A 3 mg/kg orally 1 hour before thrombus induction) is listed as “statistically significant difference”. For the same molecule, the “gastric mucosal lesion (length)” value with gastric mucosa (100 mg/kg oral, single drug) is “a clear action for gastric mucosa cannot be confirmed”; in the data set with gastric mucosa (Compound A 100 mg/kg concomitantly with clopidogrel 3 mg/kg, oral), “a clear action for gastric mucosa cannot be confirmed”. The inhibition at 3 mg/kg came to 82.1% on COX-1 (3 mg/kg Compound A orally) and 10.1% at COX-2 (3 mg/kg Compound A orally, concomitant use with 1 mg/kg of clopidogrel).

As for `CC(=O)Oc1ccccc1C(=O)O` [aspirin], in data set [1] (300 mg/kg aspirin concomitantly with 1 mg/kg clopidogrel), the “total protein content of thrombi, concomitant administration compared with single administration groups” value was “significant difference from the clopidogrel single administration group (CLO 1), but a significant difference was not found in comparison with the aspirin single administration group (ASA 300)”. Moreover, in data set [1] (aspirin 300 mg/kg orally 1 hour before thrombus induction), the “total protein content of thrombi, comparison with control (vehicle administration group)” value is recorded as “statistically significant difference”. Also, the “gastric mucosal lesion (length)” value in the data set on gastric mucosa (300 mg/kg oral, single drug) is reported as “Gastric mucosal damage was clearly formed”; in the data set on gastric mucosa (aspirin 300 mg/kg concomitantly with clopidogrel 3 mg/kg, oral) it was “Gastric mucosal damage was also clearly induced”. The “gastric mucosal damage at concomitant administration with clopidogrel compared with aspirin alone” value in the data set with gastric mucosa (aspirin 300 mg/kg + clopidogrel 3 mg/kg vs aspirin 300 mg/kg alone) is on record as “becomes worse”. In addition, the results for the inhibition at 300 mg/kg at COX-1 (300 mg/kg aspirin orally) and at COX-2 were 100% and 90.4%, respectively. In data set [2], the event onset ratio is recorded as 5.32 %/year. For the same molecule, the event inhibition ratio in data set [3] (75 mg or less, meta-analysis) is 13%; in data set [3] (administration of from 75 to 150 mg, meta-analysis), 32%; in data set [3] (administration of from 160 to 325 mg, meta-analysis) it was 26%; in data set [3] (administration of from 500 to 1500 mg, meta-analysis), 19%; in data set [3] (high risk patients, low dose aspirin), “about 25%”.

As for `COC(=O)[C@H](c1ccccc1Cl)N1CCc2sccc2C1` [clopidogrel, methyl (+)-(S)-2-(2-chlorophenyl)-2-(4,5,6,7-tetrahydrothieno[3,2-c]pyridin-5-yl)acetate], the “total protein content of thrombi, comparison with control (vehicle administration group)” value in data set [1] (clopidogrel 1 mg/kg orally 2 hours before thrombus induction) is given as “statistically significant difference”. In the data set with gastric mucosa (100 mg/kg oral, single drug), the “gastric mucosal lesion (length)” value is recorded as “a clear action for gastric mucosa cannot be confirmed”. Further, in data set [2], the event onset ratio is 5.83 %/year and the “lowering of the event onset ratio based on aspirin” value is recorded as 8.7%. The “reduction of event ratio in combination use group in comparison with the aspirin alone group” value in data set [4] (non-ST increase ACS patients) is on record as 20%. In data set [4], the “hemorrhagic side effects in the combination use group” value was “significantly increased”. For the same molecule, the primary prevention effect entry in data set [5] (low risk patients) was “usefulness of the combination group was not found”. Besides, the “secondary thrombotic event inhibition effect” value in data set [5] (patients of ischemic diseases) is “significant secondary thrombotic event inhibition effect”.
